The text below walks through data of PubChem BioAssay AID1259411 (Chemical Carcinogenesis Research Information System (CCRIS), 2018).

The structures appear in SMILES notation. Active and inactive are the calls of the source. No rule for the calls is given here.

This data set relates to rodent carcinogenicity bioassays, tumor incidence. The data set can be described thus: CCRIS carcinogenicity studies. A digest of the protocol:
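Archive of carcinogenicity, mutagenicity, tumor promotion and tumor inhibition results drawn from journals, NCI reports and other sources, expert-reviewed; covers 1985-2011 and is no longer updated.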

On to `CC=O`, for which the carcinogen call is, setting by setting: (Species: RAT, Strain/Sex: WISTAR/FEMALE, Route: INHALATION, Dose: 0, 750, 1500, 3000 PPM 6 HR/D 5 D/WK AFTER 4 MO HIGH DOSE REDUCED TO 2150 PPM THEN 1500 PPM AT 6 MO AND 1000 PPM AT 12 M, Dose: 0, 750, 1500, 3000 PPM 6 HR/D 5 D/WK AFTER 4 MO HIGH DOSE REDUCED TO 2150 PPM THEN 1500 PPM AT 6 MO AND 1000 PPM AT 12 M, Tumor Site: Type of Lesion: NASAL CAVITY: TUMOR) “active; positive”; (Species: RAT, Strain/Sex: WISTAR/MALE, Route: INHALATION, Dose: 0, 750, 1500, 3000 PPM 6 HR/D 5 D/WK AFTER 4 MO HIGH DOSE REDUCED TO 2150 PPM THEN 1500 PPM AT 6 MO AND 1000 PPM AT 12 M, Dose: 0, 750, 1500, 3000 PPM 6 HR/D 5 D/WK AFTER 4 MO HIGH DOSE REDUCED TO 2150 PPM THEN 1500 PPM AT 6 MO AND 1000 PPM AT 12 M, Tumor Site: Type of Lesion: NASAL CAVITY: TUMOR) “active; positive”.
On to `FC(Cl)(Cl)Cl`, for which the carcinogen call (Species: MOUSE, Strain/Sex: B6C3F1/FEMALE, Route: GAVAGE, Dose: 0, 1962, 3925 MG/KG, TWA, Dose: 0, 1962, 3925 MG/KG, TWA) is “inactive; negative”; the carcinogen call (Species: MOUSE, Strain/Sex: B6C3F1/MALE, Route: GAVAGE, Dose: 0, 1962, 3925 MG/KG, TWA, Dose: 0, 1962, 3925 MG/KG, TWA) is “inactive; negative”; the carcinogen call (Species: MOUSE, Strain/Sex: SWISS/FEMALE, Route: INHALATION, Dose: 0, 1000, 5000 PPM 4 HR/D 5 D/WK FOR 78 WK (STUDY DURATION: LIFETIME), Dose: 0, 1000, 5000 PPM 4 HR/D 5 D/WK FOR 78 WK (STUDY DURATION: LIFETIME)) was “inactive; negative”; the carcinogen call (Species: MOUSE, Strain/Sex: SWISS/MALE, Route: INHALATION, Dose: 0, 1000, 5000 PPM 4 HR/D 5 D/WK FOR 78 WK (STUDY DURATION: LIFETIME), Dose: 0, 1000, 5000 PPM 4 HR/D 5 D/WK FOR 78 WK (STUDY DURATION: LIFETIME)) is “inactive; negative”; the carcinogen call (Species: RAT, Strain/Sex: SPRAGUE-DAWLEY/FEMALE, Route: INHALATION, Dose: 0, 1000, 5000 PPM 4 HR/D 5 D/WK FOR 104 WK (STUDY DURATION: LIFETIME), Dose: 0, 1000, 5000 PPM 4 HR/D 5 D/WK FOR 104 WK (STUDY DURATION: LIFETIME)) is “inactive; negative”; the carcinogen call (Species: RAT, Strain/Sex: SPRAGUE-DAWLEY/FEMALE, Route: INHALATION, Dose: 0, 1000, 5000 PPM IN AIR 4 HR/D 5 D/WK FOR 104 WK (STUDY DURATION: LIFETIME), Dose: 0, 1000, 5000 PPM IN AIR 4 HR/D 5 D/WK FOR 104 WK (STUDY DURATION: LIFETIME), Tumor Site: Type of Lesion: [BRAIN WAS ONLY SITE EVALUATED]) is “inactive; negative”. Besides, the carcinogen call is “inactive; negative” (Species: RAT, Strain/Sex: SPRAGUE-DAWLEY/MALE, Route: INHALATION, Dose: 0, 1000, 5000 PPM 4 HR/D 5 D/WK FOR 104 WK (STUDY DURATION: LIFETIME), Dose: 0, 1000, 5000 PPM 4 HR/D 5 D/WK FOR 104 WK (STUDY DURATION: LIFETIME)) and “inactive; negative” (Species: RAT, Strain/Sex: SPRAGUE-DAWLEY/MALE, Route: INHALATION, Dose: 0, 1000, 5000 PPM IN AIR 4 HR/D 5 D/WK FOR 104 WK (STUDY DURATION: LIFETIME), Dose: 0, 1000, 5000 PPM IN AIR 4 HR/D 5 D/WK FOR 104 WK (STUDY DURATION: LIFETIME), Tumor Site: Type of Lesion: [BRAIN WAS ONLY SITE EVALUATED]).
As to `CC1CN1` (stereo not given), the carcinogen call is, setting by setting: (Species: RAT, Strain/Sex: STRAIN-CD/FEMALE, Route: GAVAGE, Dose: 10.5, 20.7 MG/KG (AVE DOSE) IN WATER 2/WK FOR 58 WK (LOW DOSE) OR 27 WK (HIGH DOSE), Tumor Site: Type of Lesion: INTESTINES: ADENOCARCINOMA, BRAIN (CEREBRUM): GLIOMA, EAR (DUCT): SQUAMOUS CELL CARCINOMA, MAMMARY GLAND: ADENOCARCINOMA, Tumor Site: Type of Lesion: INTESTINES: ADENOCARCINOMA, BRAIN (CEREBRUM): GLIOMA, EAR (DUCT): SQUAMOUS CELL CARCINOMA, MAMMARY GLAND: ADENOCARCINOMA) “active; positive”; (Species: RAT, Strain/Sex: STRAIN-CD/MALE, Route: GAVAGE, Dose: 10.5, 20.7 MG/KG (AVE DOSE) IN WATER 2/WK FOR 58 WK (LOW DOSE) OR 27 WK (HIGH DOSE), Tumor Site: Type of Lesion: HEMATOPOIETIC SYSTEM (LEUKEMIA): GRANULOCYTIC LEUKEMIA, BRAIN (CEREBRUM): GLIOMA, EAR (DUCT): SQUAMOUS CELL CARCINOMA, I, Tumor Site: Type of Lesion: HEMATOPOIETIC SYSTEM (LEUKEMIA): GRANULOCYTIC LEUKEMIA, BRAIN (CEREBRUM): GLIOMA, EAR (DUCT): SQUAMOUS CELL CARCINOMA, I) “active; positive”.
As for `COc1ccccc1N`, the carcinogen call was “active; positive” (Species: MOUSE, Strain/Sex: B6C3F1/FEMALE, Route: ORAL, Dose: 0, 2500, 5000 PPM IN DIET FOR 103 WK (STUDY DURATION: 105 WK), Dose: 0, 2500, 5000 PPM IN DIET FOR 103 WK (STUDY DURATION: 105 WK), Tumor Site: Type of Lesion: URINARY BLADDER: TRANSITIONAL CELL CARCINOMA, TRANSITIONAL CELL PAPILLOMA OR CARCINOMA); “active; positive” (Species: MOUSE, Strain/Sex: B6C3F1/MALE, Route: ORAL, Dose: 0, 2500, 5000 PPM IN DIET FOR 103 WK (STUDY DURATION: 104-105 WK), Dose: 0, 2500, 5000 PPM IN DIET FOR 103 WK (STUDY DURATION: 104-105 WK), Tumor Site: Type of Lesion: URINARY BLADDER: TRANSITIONAL CELL CARCINOMA, TRANSITIONAL CELL PAPILLOMA OR CARCINOMA); “active; positive” (Species: RAT, Strain/Sex: F344/FEMALE, Route: ORAL, Dose: 0, 5000, 10000 PPM IN DIET FOR 83-103 WK (STUDY DURATION: 83-107 WK), Dose: 0, 5000, 10000 PPM IN DIET FOR 83-103 WK (STUDY DURATION: 83-107 WK), Tumor Site: Type of Lesion: URINARY BLADDER: TRANSITIONAL CELL CARCINOMA, TRANSITIONAL CELL PAPILLOMA OR CARCINOMA); “active; positive” (Species: RAT, Strain/Sex: F344/MALE, Route: ORAL, Dose: 0, 5000, 10000 PPM IN DIET FOR 88-103 WK (STUDY DURATION: 88-106 WK), Dose: 0, 5000, 10000 PPM IN DIET FOR 88-103 WK (STUDY DURATION: 88-106 WK), Tumor Site: Type of Lesion: KIDNEY OR KIDNEY (PELVIS): TRANSITIONAL CELL CARCINOMA, URINARY BLADDER: TRANSITIONAL CELL CARCINOMA, TRANSITIONAL CELL).
Consider `CN(C)CCC(c1ccc(Cl)cc1)c1ccccn1` (stereo not given), for which the carcinogen call runs as follows: (Species: MOUSE, Strain/Sex: B6C3F1/FEMALE, Route: GAVAGE, Dose: 0, 100, 200 MG/KG IN DEIONIZED WATER 5 D/WK FOR 103 WK, Dose: 0, 100, 200 MG/KG IN DEIONIZED WATER 5 D/WK FOR 103 WK) “inactive; negative”; (Species: MOUSE, Strain/Sex: B6C3F1/MALE, Route: GAVAGE, Dose: 0, 25, 50 MG/KG IN DEIONIZED WATER 5 D/WK FOR 103 WK, Dose: 0, 25, 50 MG/KG IN DEIONIZED WATER 5 D/WK FOR 103 WK) “inactive; negative”; (Species: RAT, Strain/Sex: F344/FEMALE, Route: GAVAGE, Dose: 0, 30, 60 MG/KG IN DEIONIZED WATER 5 D/WK FOR 103 WK, Dose: 0, 30, 60 MG/KG IN DEIONIZED WATER 5 D/WK FOR 103 WK) “inactive; negative”; (Species: RAT, Strain/Sex: F344/FEMALE, Route: ORAL, Dose: 0, 1000 PPM IN DIET FOR 106 WK (STUDY DURATION: 130 WK)) “inactive; negative”; (Species: RAT, Strain/Sex: F344/MALE, Route: GAVAGE, Dose: 0, 15, 30 MG/KG IN DEIONIZED WATER 5 D/WK FOR 103 WK, Dose: 0, 15, 30 MG/KG IN DEIONIZED WATER 5 D/WK FOR 103 WK) “inactive; negative”; (Species: RAT, Strain/Sex: F344/MALE, Route: ORAL, Dose: 0, 1000 PPM IN DIET FOR 106 WK (STUDY DURATION: 130 WK)) “inactive; negative”.
For the molecule `COP(=O)(OC)OC(=CCl)c1cc(Cl)c(Cl)cc1Cl`, the carcinogen call (Species: MOUSE, Strain/Sex: B6C3F1/MALE, Route: ORAL, Dose: 0, 8000, 16000 PPM IN DIET, Dose: 0, 8000, 16000 PPM IN DIET, Tumor Site: Type of Lesion: LIVER: NEOPLASTIC NODULE OR HEPATOCELLULAR CARCINOMA) is “active; positive” and the carcinogen call (Species: RAT, Strain/Sex: OSBORNE-MENDEL/MALE, Route: ORAL, Dose: 0, 4250, 8500 PPM IN DIET, TWA, Dose: 0, 4250, 8500 PPM IN DIET, TWA) was “inactive; negative”.
Turning to `c1ccc2c(c1)CCc1cc3c4c(ccc3cc1-2)CCCC4`, the carcinogen call (Species: MOUSE, Strain/Sex: SWISS/FEMALE, Route: DERMAL, Dose: 0, 38 UG AS A 0.2% SOLUTION IN ACETONE APPLIED TO INTERSCAPULAR REGION 2/WK FOR 50 WK (STUDY DURATION: 60 WK), Tumor Site: Type of Lesion: SKIN: CARCINOMA) is “active; positive”.
